Assay: Residence time / pharmacokinetics of pilocarpine in the tear fluid
Design: species or system male New Zealand albino rabbits
Conditions: rabbit, in vivo
From the text: Specifically, all of the ophthalmic preparations employed in the tests shown herein contain 2.0% by weight of pilocarpine nitrate (PiNO3), but the control preparation referred to in the following table as RS (i.e. reference solution) is an aqueous solution without any thickening agent, while the preparation according to the invention, referred to below as "TSP", is formulated according to Example 2.1.
All of the tests described herein have been carried out on male New Zealand albino rabbits weighing 3-3.5 kg, non anesthesized and kept in standard stabling conditions, at a temperature of 18-20° C. Both the miotic effect and the residence time of the drug in the tear fluid were measured after instillation (at the time=0) of 25 μl of the preparation under study in the lower conjunctival sac of one eye of the rabbits, while the other eye served as a control.
In order to verify whether the product according to the invention was able to prolong, in comparison with other vehicles, the residence of the drug in the precorneal area, the following test was carried out: after instillation of one of the preparations under test, samples of tear fluid (1 μl) were collected, at suitable time intervals, from the rim portion of the lower conjunctival sac, using a microcapillary and avoiding any contact with the corneal epithelium. The tear fluid samples, transferred into microprobes, were diluted with water and analysed by HPLC.
The results of said test are reported, in terms of pilocarpine concentration (μg/μl) detected in the tear fluid as a function of time, in Table 9 and in the corresponding FIG. 7.
The differences in the performance of the various vehicles are better evidenced by the following table, reporting the pharmacokinetic parameters of pilocarpine in the tear fluid, in the various formulations, as calculated from the tests described above. The said parameters are as follows:
Ke : apparent clearance velocity constant
AUCrel : AUC relative to the reference solution
t1/2 : half-life time of the drug in the tear fluid
MRT: mean residence time of the drug in the tear fluid.

HPMC
AUC t3min→∞: 23.13 µg·min/µL
AUCrel, AUC relative to the reference solution: 6.27
Ke, apparent clearance velocity constant: 0.098 min⁻¹
MRT, mean residence time: 8.83 min
increase in half-life with respect to the reference solution: almost of double
pilocarpine concentration in the tear fluid (3 min): 3.894 µg/µL
pilocarpine concentration in the tear fluid (5 min): 1.9 µg/µL
pilocarpine concentration in the tear fluid (10 min): 1.03 µg/µL
pilocarpine concentration in the tear fluid (15 min): 0.583 µg/µL
pilocarpine concentration in the tear fluid (30 min): 0.074 µg/µL
pilocarpine concentration in the tear fluid (45 min): 0.025 µg/µL
pilocarpine concentration in the tear fluid (60 min): 0.016 µg/µL

From patent US6056950A, “Ophthalmic solutions viscosified with tamarind seed polysaccharide” (Farmigea S.p.A., priority 1996, dated 2000)
